Like-named read-outs stand apart in the source and are kept apart here.
Columns and labels:
Abl (Q252H) = target: T1, Abl (Q252H) (Homo sapiens, UniProt P00519, Q252H); assay: Kinome profiler screen; assay type: biochemical; settings: at 20,000 nM inhibitor; kinase activity remaining
T1 construct: purchased Millipore KinaseProfiler

ACK1 = target: T2, ACK1 (Homo sapiens, UniProt Q07912); assay: Kinome profiler screen; assay type: biochemical; settings: at 20,000 nM inhibitor; kinase activity remaining
T2 construct: purchased Millipore KinaseProfiler

AMPKα1 = target: T3, AMPKα1 (Homo sapiens, UniProt Q13131); assay: Kinome profiler screen; assay type: biochemical; settings: at 20,000 nM inhibitor; kinase activity remaining
T3 construct: purchased Millipore KinaseProfiler

Axl = target: T4, Axl (Homo sapiens, UniProt P30530); assay: Kinome profiler screen; assay type: biochemical; settings: at 20,000 nM inhibitor; kinase activity remaining
T4 construct: purchased Millipore KinaseProfiler

BRK = target: T5, BRK (Homo sapiens, UniProt Q13882); assay: Kinome profiler screen; assay type: biochemical; settings: at 20,000 nM inhibitor; kinase activity remaining
T5 construct: purchased Millipore KinaseProfiler

BTK(R28H) = target: T6, BTK(R28H) (Homo sapiens, UniProt Q06187, R28H); assay: Kinome profiler screen; assay type: biochemical; settings: at 20,000 nM inhibitor; kinase activity remaining
T6 construct: purchased Millipore KinaseProfiler

CaMKIIγ = target: T7, CaMKIIγ (Homo sapiens, UniProt Q13555); assay: Kinome profiler screen; assay type: biochemical; settings: at 20,000 nM inhibitor; kinase activity remaining
T7 construct: purchased Millipore KinaseProfiler

CDK2/cyclinA = target: T8, CDK2/cyclinA (Homo sapiens, UniProt P24941); assay: Kinome profiler screen; assay type: biochemical; settings: at 20,000 nM inhibitor; kinase activity remaining
T8 construct: purchased Millipore KinaseProfiler

CK1γ2 = target: T9, CK1γ2 (Homo sapiens, UniProt P78368); assay: Kinome profiler screen; assay type: biochemical; settings: at 20,000 nM inhibitor; kinase activity remaining
T9 construct: purchased Millipore KinaseProfiler

CK1γ3 = target: T10, CK1γ3 (Homo sapiens, UniProt Q9Y6M4); assay: Kinome profiler screen; assay type: biochemical; settings: at 20,000 nM inhibitor; kinase activity remaining
T10 construct: purchased Millipore KinaseProfiler

CK2α2 = target: T11, CK2α2 (Homo sapiens, UniProt P19784); assay: Kinome profiler screen; assay type: biochemical
T11 construct: purchased Millipore KinaseProfiler

CSK = target: T12, CSK (Homo sapiens, UniProt P41240); assay: Kinome profiler screen; assay type: biochemical; settings: at 20,000 nM inhibitor; kinase activity remaining
T12 construct: purchased Millipore KinaseProfiler

EphA3 = target: T13, EphA3 (Homo sapiens, UniProt P29320); assay: Kinome profiler screen; assay type: biochemical; settings: at 20,000 nM inhibitor; kinase activity remaining
T13 construct: purchased Millipore KinaseProfiler

EphB1 = target: T14, EphB1 (Homo sapiens, UniProt P54762); assay: Kinome profiler screen; assay type: biochemical
T14 construct: purchased Millipore KinaseProfiler

GRK6 = target: T15, GRK6 (Homo sapiens, UniProt P43250); assay: Kinome profiler screen; assay type: biochemical
T15 construct: purchased Millipore KinaseProfiler

IGF-1R = target: T16, IGF-1R (Homo sapiens, UniProt P08069); assay: Kinome profiler screen; assay type: biochemical; settings: at 20,000 nM inhibitor; kinase activity remaining
T16 construct: purchased Millipore KinaseProfiler

IKKα = target: T17, IKKα (Homo sapiens, UniProt O15111); assay: Kinome profiler screen; assay type: biochemical; settings: at 20,000 nM inhibitor; kinase activity remaining
T17 construct: purchased Millipore KinaseProfiler

MARK1 = target: T18, MARK1 (Homo sapiens, UniProt Q9P0L2); assay: Kinome profiler screen; assay type: biochemical; settings: at 20,000 nM inhibitor; kinase activity remaining
T18 construct: purchased Millipore KinaseProfiler

Met(D1246H) = target: T19, Met(D1246H) (Homo sapiens, UniProt P08581, D1228H); assay: Kinome profiler screen; assay type: biochemical; settings: at 20,000 nM inhibitor; kinase activity remaining
T19 construct: purchased Millipore KinaseProfiler

Met(D1246N) = target: T20, Met(D1246N) (Homo sapiens, UniProt P08581, D1228N); assay: Kinome profiler screen; assay type: biochemical; settings: at 20,000 nM inhibitor; kinase activity remaining
T20 construct: purchased Millipore KinaseProfiler

MKK7β = target: T21, MKK7β (Homo sapiens, UniProt O14733); assay: Kinome profiler screen; assay type: biochemical; settings: at 20,000 nM inhibitor; kinase activity remaining
T21 construct: purchased Millipore KinaseProfiler

Mnk2 = target: T22, Mnk2 (Homo sapiens, UniProt Q9HBH9); assay: Kinome profiler screen; assay type: biochemical; settings: at 20,000 nM inhibitor; kinase activity remaining
T22 construct: purchased Millipore KinaseProfiler

MSSK1 = target: T23, MSSK1 (Homo sapiens, UniProt Q9UPE1); assay: Kinome profiler screen; assay type: biochemical; settings: at 20,000 nM inhibitor; kinase activity remaining
T23 construct: purchased Millipore KinaseProfiler

mTOR = target: T24, mTOR (Homo sapiens, UniProt P42345); assay: Kinome profiler screen; assay type: biochemical; settings: at 20,000 nM inhibitor; kinase activity remaining
T24 construct: purchased Millipore KinaseProfiler

NEK3 = target: T25, NEK3 (Homo sapiens, UniProt P51956); assay: Kinome profiler screen; assay type: biochemical; settings: at 20,000 nM inhibitor; kinase activity remaining
T25 construct: purchased Millipore KinaseProfiler

p70S6K = target: T26, p70S6K (Homo sapiens, UniProt P23443); assay: Kinome profiler screen; assay type: biochemical; settings: at 20,000 nM inhibitor; kinase activity remaining
T26 construct: purchased Millipore KinaseProfiler

PDGFRα(D842V) = target: T27, PDGFRα(D842V) (Homo sapiens, UniProt P16234, D842V); assay: Kinome profiler screen; assay type: biochemical; settings: at 20,000 nM inhibitor; kinase activity remaining
T27 construct: purchased Millipore KinaseProfiler

PhKγ2 = target: T28, PhKγ2 (Homo sapiens, UniProt P15735); assay: Kinome profiler screen; assay type: biochemical; settings: at 20,000 nM inhibitor; kinase activity remaining
T28 construct: purchased Millipore KinaseProfiler

PI3 Kinase (p120γ) = target: T29, PI3 Kinase (p120γ) (Homo sapiens, UniProt P48736); assay: Kinome profiler screen; assay type: biochemical; settings: at 20,000 nM inhibitor; kinase activity remaining
T29 construct: purchased Millipore KinaseProfiler

PI3 Kinase (p110δ/p85α) = target: T30, PI3 Kinase (p110δ/p85α) (Homo sapiens, UniProt O00329); assay: Kinome profiler screen; assay type: biochemical; settings: at 20,000 nM inhibitor; kinase activity remaining
T30 construct: purchased Millipore KinaseProfiler

[1] = target: T31, PI3 Kinase (p110α (E545K)/p85α)(m) (Mus musculus, UniProt P42337, E545K); assay: Kinome profiler screen; assay type: biochemical; settings: at 20,000 nM inhibitor; kinase activity remaining
T31 construct: purchased Millipore KinaseProfiler

[2] = target: T32, PI3 Kinase (p110α (E542K)/p85α) (Homo sapiens, UniProt P42336, E542K); assay: Kinome profiler screen; assay type: biochemical; settings: at 20,000 nM inhibitor; kinase activity remaining
T32 construct: purchased Millipore KinaseProfiler

Pim-2 = target: T33, Pim-2 (Homo sapiens, UniProt Q9P1W9); assay: Kinome profiler screen; assay type: biochemical; settings: at 20,000 nM inhibitor; kinase activity remaining
T33 construct: purchased Millipore KinaseProfiler

PKBγ = target: T34, PKBγ (Homo sapiens, UniProt Q9Y243); assay: Kinome profiler screen; assay type: biochemical; settings: at 20,000 nM inhibitor; kinase activity remaining
T34 construct: purchased Millipore KinaseProfiler

PKCε = target: T35, PKCε (Homo sapiens, UniProt Q02156); assay: Kinome profiler screen; assay type: biochemical; settings: at 20,000 nM inhibitor; kinase activity remaining
T35 construct: purchased Millipore KinaseProfiler

PKCζ = target: T36, PKCζ (Homo sapiens, UniProt Q05513); assay: Kinome profiler screen; assay type: biochemical; settings: at 20,000 nM inhibitor; kinase activity remaining
T36 construct: purchased Millipore KinaseProfiler

Ret = target: T37, Ret (Homo sapiens, UniProt P07949); assay: Kinome profiler screen; assay type: biochemical; settings: at 20,000 nM inhibitor; kinase activity remaining
T37 construct: purchased Millipore KinaseProfiler

Rsk1(r) = target: T38, Rsk1(r) (Rattus norvegicus, UniProt Q63531); assay: Kinome profiler screen; assay type: biochemical; settings: at 20,000 nM inhibitor; kinase activity remaining
T38 construct: purchased Millipore KinaseProfiler

SGK2 = target: T39, SGK2 (Homo sapiens, UniProt Q9HBY8); assay: Kinome profiler screen; assay type: biochemical; settings: at 20,000 nM inhibitor; kinase activity remaining
T39 construct: purchased Millipore KinaseProfiler

TAO3 = target: T40, TAO3 (Homo sapiens, UniProt Q9H2K8); assay: Kinome profiler screen; assay type: biochemical; settings: at 20,000 nM inhibitor; kinase activity remaining
T40 construct: purchased Millipore KinaseProfiler

Tie2(R849W) = target: T41, Tie2(R849W) (Homo sapiens, UniProt Q02763, R849W); assay: Kinome profiler screen; assay type: biochemical; settings: at 20,000 nM inhibitor; kinase activity remaining
T41 construct: purchased Millipore KinaseProfiler

[3] = test system: IL-1β levels in brain cortex; assay: LPS-induced brain IL-1β in vivo; parameters: species or system C57Bl/6 mice; settings: 20 mg/Kg oral gavage 1 hr before LPS 0.5 mg/kg i.p.; brain cortex at 6 hrs
[4] = at 20,000 nM inhibitor, kinase activity remaining, read-out: % Activity

T39 sequence (Q9HBY8 whole entry): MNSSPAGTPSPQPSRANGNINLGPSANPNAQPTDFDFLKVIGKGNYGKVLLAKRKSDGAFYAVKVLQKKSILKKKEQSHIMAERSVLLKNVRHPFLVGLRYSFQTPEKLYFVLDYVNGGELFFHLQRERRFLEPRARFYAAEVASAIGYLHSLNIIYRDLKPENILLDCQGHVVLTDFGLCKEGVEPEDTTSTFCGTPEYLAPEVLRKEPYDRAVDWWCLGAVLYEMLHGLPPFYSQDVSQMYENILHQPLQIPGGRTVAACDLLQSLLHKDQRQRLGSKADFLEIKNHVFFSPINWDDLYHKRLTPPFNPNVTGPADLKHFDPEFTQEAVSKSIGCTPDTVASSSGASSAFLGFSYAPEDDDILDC
T2 sequence (Q07912 whole entry): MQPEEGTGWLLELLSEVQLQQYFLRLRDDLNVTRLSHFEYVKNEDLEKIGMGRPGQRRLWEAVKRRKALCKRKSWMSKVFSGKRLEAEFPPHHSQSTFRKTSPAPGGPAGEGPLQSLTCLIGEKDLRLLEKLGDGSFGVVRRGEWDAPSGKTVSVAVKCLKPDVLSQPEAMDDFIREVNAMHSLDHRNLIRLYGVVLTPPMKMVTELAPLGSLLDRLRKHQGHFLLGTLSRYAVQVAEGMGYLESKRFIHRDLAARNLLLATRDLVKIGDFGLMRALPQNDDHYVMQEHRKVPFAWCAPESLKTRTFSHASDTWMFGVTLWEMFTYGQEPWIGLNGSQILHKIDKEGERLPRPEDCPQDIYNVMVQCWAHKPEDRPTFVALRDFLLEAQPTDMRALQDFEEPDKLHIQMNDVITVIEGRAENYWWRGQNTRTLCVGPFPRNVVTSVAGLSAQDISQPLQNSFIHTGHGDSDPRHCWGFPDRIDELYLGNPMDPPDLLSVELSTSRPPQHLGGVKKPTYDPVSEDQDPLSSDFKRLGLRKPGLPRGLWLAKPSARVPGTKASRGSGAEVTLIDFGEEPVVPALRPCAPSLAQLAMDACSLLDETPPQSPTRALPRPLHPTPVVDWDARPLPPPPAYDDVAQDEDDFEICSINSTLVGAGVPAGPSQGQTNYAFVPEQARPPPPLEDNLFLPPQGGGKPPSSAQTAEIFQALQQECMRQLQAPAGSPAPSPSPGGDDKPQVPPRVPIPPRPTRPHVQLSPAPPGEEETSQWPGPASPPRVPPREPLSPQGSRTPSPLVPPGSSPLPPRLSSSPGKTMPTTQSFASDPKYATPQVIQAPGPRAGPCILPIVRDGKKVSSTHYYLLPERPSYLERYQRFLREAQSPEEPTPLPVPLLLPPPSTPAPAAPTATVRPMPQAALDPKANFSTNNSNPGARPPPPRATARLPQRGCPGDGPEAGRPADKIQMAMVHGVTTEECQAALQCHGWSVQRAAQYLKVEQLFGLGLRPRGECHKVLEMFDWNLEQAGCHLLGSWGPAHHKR
T17 sequence (O15111 whole entry): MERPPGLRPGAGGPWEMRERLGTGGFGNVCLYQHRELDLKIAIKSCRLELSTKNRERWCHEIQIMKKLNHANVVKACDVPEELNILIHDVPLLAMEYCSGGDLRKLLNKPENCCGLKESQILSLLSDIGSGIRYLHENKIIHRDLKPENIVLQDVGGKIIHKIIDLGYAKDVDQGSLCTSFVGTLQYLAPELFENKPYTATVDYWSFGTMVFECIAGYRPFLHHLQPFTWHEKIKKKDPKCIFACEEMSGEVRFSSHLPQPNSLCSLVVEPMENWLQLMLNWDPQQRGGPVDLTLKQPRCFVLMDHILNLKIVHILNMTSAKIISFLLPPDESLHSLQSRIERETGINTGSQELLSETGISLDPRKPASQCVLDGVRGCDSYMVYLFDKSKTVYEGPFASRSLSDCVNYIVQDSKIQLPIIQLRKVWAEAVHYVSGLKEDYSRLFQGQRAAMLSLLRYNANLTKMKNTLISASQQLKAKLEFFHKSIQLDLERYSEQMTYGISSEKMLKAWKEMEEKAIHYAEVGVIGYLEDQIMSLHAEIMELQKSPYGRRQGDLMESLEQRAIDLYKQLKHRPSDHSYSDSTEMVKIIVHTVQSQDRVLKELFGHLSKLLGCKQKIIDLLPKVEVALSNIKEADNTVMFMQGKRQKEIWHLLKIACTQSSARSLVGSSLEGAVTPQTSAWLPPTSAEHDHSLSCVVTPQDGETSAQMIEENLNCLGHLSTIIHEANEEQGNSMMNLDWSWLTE
T37 sequence (P07949 29-1114): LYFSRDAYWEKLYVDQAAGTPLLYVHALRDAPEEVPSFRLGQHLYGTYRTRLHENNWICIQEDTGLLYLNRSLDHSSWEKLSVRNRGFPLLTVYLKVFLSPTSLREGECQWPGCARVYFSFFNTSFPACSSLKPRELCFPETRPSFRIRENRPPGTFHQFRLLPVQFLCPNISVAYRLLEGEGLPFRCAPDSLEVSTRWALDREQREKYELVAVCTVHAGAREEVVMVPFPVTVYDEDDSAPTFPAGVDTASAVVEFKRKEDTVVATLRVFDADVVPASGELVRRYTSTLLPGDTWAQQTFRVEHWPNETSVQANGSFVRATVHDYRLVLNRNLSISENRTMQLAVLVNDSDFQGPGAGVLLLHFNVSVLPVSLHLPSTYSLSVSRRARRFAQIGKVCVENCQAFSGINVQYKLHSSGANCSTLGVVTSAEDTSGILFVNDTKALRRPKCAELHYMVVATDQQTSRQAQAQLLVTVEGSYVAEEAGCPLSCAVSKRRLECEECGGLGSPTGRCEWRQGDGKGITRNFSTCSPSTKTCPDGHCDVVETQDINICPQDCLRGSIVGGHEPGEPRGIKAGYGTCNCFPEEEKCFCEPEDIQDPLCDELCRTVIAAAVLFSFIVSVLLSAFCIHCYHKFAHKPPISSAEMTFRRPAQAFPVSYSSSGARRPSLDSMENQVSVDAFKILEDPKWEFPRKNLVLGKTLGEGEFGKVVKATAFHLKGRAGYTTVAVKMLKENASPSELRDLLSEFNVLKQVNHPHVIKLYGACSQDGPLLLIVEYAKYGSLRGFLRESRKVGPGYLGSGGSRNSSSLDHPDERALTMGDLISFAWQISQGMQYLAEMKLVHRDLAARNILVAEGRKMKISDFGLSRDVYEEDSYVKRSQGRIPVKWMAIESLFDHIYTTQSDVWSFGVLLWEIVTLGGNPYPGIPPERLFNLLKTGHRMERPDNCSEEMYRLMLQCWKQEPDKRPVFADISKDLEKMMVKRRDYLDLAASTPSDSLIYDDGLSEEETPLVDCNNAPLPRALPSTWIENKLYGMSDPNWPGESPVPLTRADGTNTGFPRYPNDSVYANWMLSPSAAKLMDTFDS
T12 sequence (P41240 whole entry): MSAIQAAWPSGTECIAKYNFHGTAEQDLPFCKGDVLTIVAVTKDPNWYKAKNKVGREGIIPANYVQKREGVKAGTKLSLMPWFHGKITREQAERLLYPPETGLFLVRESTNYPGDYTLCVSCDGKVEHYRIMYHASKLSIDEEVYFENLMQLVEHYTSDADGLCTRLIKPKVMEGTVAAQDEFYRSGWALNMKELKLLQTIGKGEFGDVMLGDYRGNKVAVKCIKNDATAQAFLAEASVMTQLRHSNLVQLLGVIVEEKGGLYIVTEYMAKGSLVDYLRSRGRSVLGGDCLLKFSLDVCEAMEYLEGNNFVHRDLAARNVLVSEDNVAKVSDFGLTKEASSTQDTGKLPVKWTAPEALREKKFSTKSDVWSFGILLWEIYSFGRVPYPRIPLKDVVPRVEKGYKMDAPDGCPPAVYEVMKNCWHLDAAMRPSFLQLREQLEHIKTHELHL
T14 sequence (P54762 18-984): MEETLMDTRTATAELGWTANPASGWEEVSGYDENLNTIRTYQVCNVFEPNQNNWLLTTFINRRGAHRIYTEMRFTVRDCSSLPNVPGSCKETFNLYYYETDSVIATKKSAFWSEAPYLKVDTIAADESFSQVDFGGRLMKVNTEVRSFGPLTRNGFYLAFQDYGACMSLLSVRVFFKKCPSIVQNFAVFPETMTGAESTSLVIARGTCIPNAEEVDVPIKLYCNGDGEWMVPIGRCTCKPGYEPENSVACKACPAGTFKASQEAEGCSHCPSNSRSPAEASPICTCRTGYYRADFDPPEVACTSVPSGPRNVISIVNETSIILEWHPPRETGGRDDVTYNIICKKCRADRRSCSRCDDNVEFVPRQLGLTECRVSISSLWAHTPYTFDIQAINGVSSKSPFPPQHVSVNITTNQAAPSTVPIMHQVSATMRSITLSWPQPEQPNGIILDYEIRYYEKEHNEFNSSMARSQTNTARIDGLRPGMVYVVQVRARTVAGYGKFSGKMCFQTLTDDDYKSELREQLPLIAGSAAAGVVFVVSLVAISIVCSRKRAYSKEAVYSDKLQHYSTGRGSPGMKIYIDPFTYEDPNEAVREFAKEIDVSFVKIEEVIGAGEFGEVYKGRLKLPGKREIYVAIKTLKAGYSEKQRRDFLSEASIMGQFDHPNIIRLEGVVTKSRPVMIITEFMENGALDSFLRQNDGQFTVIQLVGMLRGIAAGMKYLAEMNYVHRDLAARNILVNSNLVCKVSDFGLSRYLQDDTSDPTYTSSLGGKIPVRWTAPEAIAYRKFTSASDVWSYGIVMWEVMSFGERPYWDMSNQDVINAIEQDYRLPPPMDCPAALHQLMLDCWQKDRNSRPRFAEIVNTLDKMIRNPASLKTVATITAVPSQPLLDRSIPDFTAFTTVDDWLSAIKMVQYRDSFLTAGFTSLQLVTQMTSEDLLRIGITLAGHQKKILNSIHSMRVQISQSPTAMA
T9 sequence (P78368 whole entry): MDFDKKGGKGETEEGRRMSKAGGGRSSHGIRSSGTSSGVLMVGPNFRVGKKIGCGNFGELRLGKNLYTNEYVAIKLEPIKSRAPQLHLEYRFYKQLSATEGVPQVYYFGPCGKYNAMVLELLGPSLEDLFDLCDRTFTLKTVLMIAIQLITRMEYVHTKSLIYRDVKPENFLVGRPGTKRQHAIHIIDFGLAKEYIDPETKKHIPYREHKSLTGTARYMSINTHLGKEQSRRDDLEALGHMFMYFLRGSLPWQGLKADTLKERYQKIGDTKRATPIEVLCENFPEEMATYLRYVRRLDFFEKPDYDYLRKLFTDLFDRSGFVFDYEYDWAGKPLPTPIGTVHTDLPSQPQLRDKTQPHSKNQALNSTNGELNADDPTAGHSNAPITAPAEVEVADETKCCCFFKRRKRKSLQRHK

CN(C)c1cc(-c2ccncc2)c(-c2cccc3ccccc23)nn1 [MW181, N,N-dimethyl-6-(naphthalen-1-yl)-5-(pyridin-4-yl)pyridazin-3-amine]
activity at 20 µM (Abl (Q252H)): 100% | activity at 20 µM (ACK1): 106% | activity at 20 µM (AMPKα1): 105% | activity at 20 µM (Axl): 99% | activity at 20 µM (BRK): 101% | activity at 20 µM (BTK(R28H)): 96% | activity at 20 µM (CaMKIIγ): 100% | activity at 20 µM (CDK2/cyclinA): 92% | activity at 20 µM (CK1γ2): 96% | activity at 20 µM (CK1γ3): 105% | activity at 20 µM (CK2α2; [4]): 99% | activity at 20 µM (CSK): 111% | activity at 20 µM (EphA3): 102% | activity at 20 µM (EphB1; [4]): 100% | activity at 20 µM (GRK6; [4]): 105% | activity at 20 µM (IGF-1R): 121% | activity at 20 µM (IKKα): 112% | activity at 20 µM (MARK1): 102% | activity at 20 µM (Met(D1246H)): 102% | activity at 20 µM (Met(D1246N)): 104% | activity at 20 µM (MKK7β): 116% | activity at 20 µM (Mnk2): 99% | activity at 20 µM (MSSK1): 100% | activity at 20 µM (mTOR): 109% | activity at 20 µM (NEK3): 116% | activity at 20 µM (p70S6K): 94% | activity at 20 µM (PDGFRα(D842V)): 104% | activity at 20 µM (PhKγ2): 93% | activity at 20 µM (PI3 Kinase (p120γ)): 100% | activity at 20 µM (PI3 Kinase (p110δ/p85α)): 101% | activity at 20 µM [1]: 99% | activity at 20 µM [2]: 100% | activity at 20 µM (Pim-2): 103% | activity at 20 µM (PKBγ): 100% | activity at 20 µM (PKCε): 98% | activity at 20 µM (PKCζ): 98% | activity at 20 µM (Ret): 118% | activity at 20 µM (Rsk1(r)): 93% | activity at 20 µM (SGK2): 102% | activity at 20 µM (TAO3): 88% | activity at 20 µM (Tie2(R849W)): 99% | LPS-induced IL-1β levels in vivo [3]: suppressed LPS-induced IL-1β levels in vivo

CN(C)c1cc(-c2ccncc2)c(-c2ccc3ccccc3c2)nn1 [MW108, N, N-dimethyl-6-(naphthalen-2-yl)-5-(pyridin-4-yl)pyridazin-3-amine]
activity at 20 µM (Abl (Q252H)): 105% | activity at 20 µM (ACK1): 100% | activity at 20 µM (AMPKα1): 101% | activity at 20 µM (Axl): 106% | activity at 20 µM (BRK): 85% | activity at 20 µM (BTK(R28H)): 101% | activity at 20 µM (CaMKIIγ): 99% | activity at 20 µM (CDK2/cyclinA): 79% | activity at 20 µM (CK1γ2): 91% | activity at 20 µM (CK1γ3): 100% | activity at 20 µM (CK2α2): 114% | activity at 20 µM (CSK): 93% | activity at 20 µM (EphA3): 101% | activity at 20 µM (EphB1): 92% | activity at 20 µM (GRK6): 98% | activity at 20 µM (IGF-1R): 137% | activity at 20 µM (IKKα): 105% | activity at 20 µM (MARK1): 113% | activity at 20 µM (Met(D1246H)): 94% | activity at 20 µM (Met(D1246N)): 80% | activity at 20 µM (MKK7β): 122% | activity at 20 µM (Mnk2): 99% | activity at 20 µM (MSSK1): 86% | activity at 20 µM (mTOR): 92% | activity at 20 µM (NEK3): 98% | activity at 20 µM (p70S6K): 92% | activity at 20 µM (PDGFRα(D842V)): 89% | activity at 20 µM (PhKγ2): 98% | activity at 20 µM (PI3 Kinase (p120γ)): 101% | activity at 20 µM (PI3 Kinase (p110δ/p85α)): 100% | activity at 20 µM [1]: 99% | activity at 20 µM [2]: 99% | activity at 20 µM (Pim-2): 93% | activity at 20 µM (PKBγ): 92% | activity at 20 µM (PKCε): 90% | activity at 20 µM (PKCζ): 103% | activity at 20 µM (Ret): 94% | activity at 20 µM (Rsk1(r)): 91% | activity at 20 µM (SGK2): 92% | activity at 20 µM (TAO3): 73% | activity at 20 µM (Tie2(R849W)): 77% | LPS-induced IL-1β levels in vivo [3]: suppressed LPS-induced IL-1β levels in vivo

Reference: PMC3694096, “Development of Novel In Vivo Chemical Probes to Address CNS Protein Kinase Involvement in Synaptic Dysfunction” (PLoS ONE, 2013)
